Measured values from US20260306514A1, “ORAL PHARMACEUTICAL FORMULATIONS CONTAINING 4-((2-HYDROXY-3-METHOXYBENZYL)AMINO) BENZENESULFONAMIDE DERIVATIVES” (Cadrenal Therapeutics, Inc., priority 2022, published 2026).
Values after ≈ are worked out from the molar mass of the structure shown. Like-named read-outs stand apart in the source and are kept apart here. One block for each molecule: values may come before it.

Assays:
[1] = Rat PK of Compound 1, IV and oral solution (Table 2); format: in vivo, rats
From the text: The intravenous formulation uses cyclodextrin (CD) to increase solubility. […] The inventors explored a new approach to oral formulation without guidance from the art including lipid solubility screening in various non-aqueous vehicles, self micro-emulsifying systems with oils, surfactants, and co-surfactants, amorphous solid dispersions via hot melt and spray drying, micronization, and in silico screen of supercritical fluid nanoparticle engineering. […] The pharmaceutical acceptable carrier can be a polymer.

[2] = Oral bioavailability of Compound 1 suspension in mice; conditions: mouse, in vivo, suspension in 0.5% methylcellulose
From the text: While this vehicle is sufficient for short term efficacy studies, the inventors needed a more robust and clinically relevant formulation for the longer dosing regimens required for mouse efficacy models.

[3] = test system: 12-LOX; conditions: in words; cited from earlier work
[4] = Solubility of Compound 1 in organic solvents relevant to spray drying (Table 3); format: physicochemical; conditions: for solubility: organic solvent or mixture, read-out: Solubility Concentration
Procedure: THF was the most suitable solvent, and could be combined with other solvents such as acetone, ethanol and water to enable dissolution of the drug, polymer and additives in the formulation. Furthermore, given the anticipated dose of the product, maximizing the drug loading in the amorphous dispersion was essential.
Solubility in organic solvents relevant to spray draying were conducted ([…]), showing that THF with EtOH in water was preferred (85/10/5).

[5] = Aqueous solubility; format: physicochemical; conditions: for solubility in water: in words
[6] = Rat PK of Compound 1, IV and oral suspension (Table 1); design: species or system rats; conditions: in vivo; for bioavailability: po, rats
From the text: The intravenous formulation uses cyclodextrin (CD) to increase solubility. However, a drug loading of <10% is not suitable for oral formulation. The inventors explored a new approach to oral formulation without guidance from the art including lipid solubility screening in various non-aqueous vehicles, self micro-emulsifying systems with oils, surfactants, and co-surfactants, amorphous solid dispersions via hot melt and spray drying, micronization, and in silico screen of supercritical fluid nanoparticle engineering. […] The pharmaceutical acceptable carrier can be a polymer.

- C0 or Cmax ([1]; IV, 3 mg/Kg, C0 extrapolated to T = 0 h): 63725 ng/mL
- C0 or Cmax ([1]; PO solution, 30 mg/Kg): 6610 ng/mL
- AUC(0-t) ([1]; in vivo, IV, 3 mg/Kg): 50700 ng·h/mL
- half-life ([1]; in vivo, IV, 3 mg/Kg): 155 min
- clearance ([1]; in vivo, IV, 3 mg/Kg, read-out: Cl_obs (observed clearance)): 0.986 mL/min/kg
- Vd ([1]; in vivo, IV, 3 mg/Kg, read-out: Vss_obs): 0.101 L/kg
- AUC(0-t) ([1]; in vivo, PO solution, 30 mg/Kg): 15200 ng·h/mL
- half-life ([1]; in vivo, PO solution, 30 mg/Kg): 161 min
- bioavailability ([1]; in vivo, po, 30 mg/kg, PO solution, 30 mg/Kg, read-out: F (bioavailability, fraction absorbed)): 3%
- bioavailability [2]: < 5%
- Soluble ([4]; 50:45:5 Tetrahydrofuran:Acetone:Water): Yes
- solubility ([4]; 50:45:5 tetrahydrofuran:acetone:water): 10000 µg/mL (≈ 22.6 mM)
- Soluble ([4]; 50:50 Acetone:Methanol): No
- Soluble ([4]; 50:50 Methylene Chloride:Methanol): No
- solubility ([4]; 50:50 acetone:methanol): < 2500 µg/mL
- solubility ([4]; 50:50 methylene chloride:methanol): < 2500 µg/mL
- Soluble ([4]; 85:10:5 Tetrahydrofuran:Ethanol:Water): Yes
- solubility ([4]; 85:10:5 tetrahydrofuran:ethanol:water): 10000 µg/mL (≈ 22.6 mM)
- Soluble ([4]; 95:5 Tetrahydrofuran:Water): Yes
- solubility ([4]; 95:5 tetrahydrofuran:water): 10000 µg/mL (≈ 22.6 mM)
- solubility in water [5]: poor solubility in water
- solubility enhancement ([5]; phosphate buffer or simulated intestinal fluid): greatly enhanced
- AUC(0-inf) ([6]; IV, 3 mg/kg): 43600 ng·h/mL
- AUC(0-t) ([6]; IV, 3 mg/kg): 43600 ng·h/mL
- Cmax ([6]; IV, 3 mg/kg): 49600 ng/mL
- Tmax ([6]; IV, 3 mg/kg): 0.083 h
- half-life ([6]; IV, 3 mg/kg): 155 min
- AUC(0-inf) ([6]; IV, 10 mg/kg): 100000 ng·h/mL
- AUC(0-t) ([6]; IV, 10 mg/kg): 100000 ng·h/mL
- Cmax ([6]; IV, 10 mg/kg): 91200 ng/mL
- Tmax ([6]; IV, 10 mg/kg): 0.083 h
- half-life ([6]; IV, 10 mg/kg): 179 min
- AUC(0-inf) ([6]; IV, 30 mg/kg): 214000 ng·h/mL
- AUC(0-t) ([6]; IV, 30 mg/kg): 213000 ng·h/mL
- Cmax ([6]; IV, 30 mg/kg): 180000 ng/mL
- Tmax ([6]; IV, 30 mg/kg): 0.083 h
- half-life ([6]; IV, 30 mg/kg): 154 min
- AUC(0-inf) ([6]; oral suspension, 3 mg/kg): 237 ng·h/mL
- AUC(0-t) ([6]; oral suspension, 3 mg/kg): 203 ng·h/mL
- Cmax ([6]; oral suspension, 3 mg/kg): 30 ng/mL
- Tmax ([6]; oral suspension, 3 mg/kg): 4 h
- half-life ([6]; oral suspension, 3 mg/kg): 109 min
- AUC(0-inf) ([6]; oral suspension, 10 mg/kg): 478 ng·h/mL
- AUC(0-t) ([6]; oral suspension, 10 mg/kg): 399 ng·h/mL
- Cmax ([6]; oral suspension, 10 mg/kg): 71.3 ng/mL
- Tmax ([6]; oral suspension, 10 mg/kg): 2.67 h
- half-life ([6]; oral suspension, 10 mg/kg): 205 min
- AUC(0-inf) ([6]; oral suspension, 30 mg/kg): 768 ng·h/mL
- AUC(0-t) ([6]; oral suspension, 30 mg/kg): 737 ng·h/mL
- Cmax ([6]; oral suspension, 30 mg/kg): 142 ng/mL
- Tmax ([6]; oral suspension, 30 mg/kg): 2.67 h
- half-life ([6]; oral suspension, 30 mg/kg): 148 min
- bioavailability ([6]; suspension dosing, read-out: Bioavailability): < 0.5%
- bioavailability ([6]; suspension in 0.5% methylcellulose, read-out: oral bioavailability): < 5%
SMILES: COc1cccc(CNc2ccc(S(=O)(=O)Nc3nc4ccccc4s3)cc2)c1O [Compound 1, N-(benzo[d]thiazol-2-yl)-4-((2-hydroxy-3-methoxybenzyl)amino)benzenesulfonamide]
- 12-LOX inhibitory potency [3]: highly potent
- solubilization by solvents utilized in the prior art ([4]; majority of solvents, in words): did not solubilize Compound 1 to an adequate level

- solubility in water [5]: poor solubility in water
SMILES: COc1cccc(CNc2ccc(S(=O)(=O)Nc3nc4ccccc4o3)cc2)c1O [Compound 2, N-(benzo[d]oxazol-2-yl)-4-((2-hydroxy-3-methoxybenzyl)amino)benzenesulfonamide]
- 12-LOX inhibitor selectivity [3]: selective
- 12-LOX inhibitory potency [3]: highly potent

- solubility in water [5]: poor solubility in water
SMILES: COc1cccc(CNc2ccc(S(=O)(=O)Nc3cccc(C(C)C)c3)cc2)c1O [Compound 3, 4-((2-hydroxy-3-methoxybenzyl)amino)-N-(3-isopropylphenyl)benzenesulfonamide]
- 12-LOX inhibitor selectivity [3]: selective
- 12-LOX inhibitory potency [3]: highly potent
